Calls of active or inactive are those of the source. No cut-off for these calls is given here.
Assays:
HeLa [1] = assay: Cell cycle arrest in human HeLa cells assessed as accumulation at G2/M phase at 20 nM by propidium iodide staining-based flow cytometry; type: functional
HeLa [2] = assay: Induction of apoptosis in human HeLa cells assessed as short, aberrantly shaped, tripolar or multipolar microtubule microtubule at 20 nM by immunofluorescence analysis; type: functional, cell-based
HeLa [3] = assay: Induction of apoptosis in human HeLa cells assessed as unstructured tubulin foci at 100 nM by immunofluorescence analysis; type: functional, cell-based
HeLa [4] = assay: Induction of apoptosis in human HeLa cells assessed as failure of MT elongation at 100 nM by immunofluorescence analysis; type: functional, cell-based
HeLa [5] = assay: Induction of apoptosis in human HeLa cells assessed as failure of MT elongation at 20 nM by immunofluorescence analysis; type: functional, cell-based
K562 [6] = assay: Cell cycle arrest in human K562 cells assessed as mitotic index at 0.1 nM (reference value: 3 +/- 1%); type: functional
cells [7] = conditions: Homo sapiens, HCT-15, 72 h
Description: Cytotoxicity against human HCT15 cells assessed as growth inhibition after 72 hrs by CellTitre-Glo assay

Tubulin = assay: Inhibition of tubulin (unknown origin) polymerization incubated 15 mins prior to GTP addition by spectrophotometry; type: protein-complex assay, Homo sapiens
MCF7 [8] = assay: Cytotoxicity against human MCF7 cells after 96 hrs by Giemsa staining-based light microscopy; type: functional, cell-based; conditions: MCF7, 96 h
Tubulin (Homo sapiens) = Tubulin (Homo sapiens) (UniProt P68371+Q9H4B7+P0DPH7+P68366+Q13509+Q71U36+P04350+Q3ZCM7+P07437+P68363+Q9BQE3+Q6PEY2+Q13885+Q9BVA1+Q9BUF5); assay: Displacement of [3H]colchicine from tubulin (unknown origin) at 5 uM after 10 mins; type: protein-complex assay
[9] = Cytotoxicity against human MESSA cells assessed as growth inhibition after 72 hrs by CellTitre-Glo assay; type: functional, cell-based; conditions: MES-SA
[10] = Cytotoxicity against human MESSA/DX5 cells assessed as growth inhibition after 72 hrs by CellTitre-Glo assay; type: functional, cell-based; conditions: MES-SA/Dx5, 72 h
[11] = Cytotoxicity against human PC3 cells assessed as growth inhibition after 48 hrs by MTT method; type: functional, cell-based; conditions: PC-3, 48 h
RD [12] = assay: Cytotoxicity against human RD cells assessed as growth inhibition after 48 hrs by MTT method; type: functional, cell-based
HepG2 [13] = assay: Cytotoxicity against human HepG2 cells assessed as growth inhibition after 48 hrs by MTT method; type: functional, cell-based; conditions: HepG2, 48 h
[14] = Cell cycle arrest in human PC3 cells assessed as accumulation at G2/M phase at 500 nM after 24 hrs by propidium iodide staining-based flow cytometry; type: functional; conditions: PC-3
RD [15] = assay: Cell cycle arrest in human RD cells assessed as accumulation at G2/M phase at 500 nM after 24 hrs by propidium iodide staining-based flow cytometry; type: functional
HepG2 [16] = assay: Cell cycle arrest in human HepG2 cells assessed as accumulation at G2/M phase at 500 nM after 24 hrs by propidium iodide staining-based flow cytometry; type: functional
[17] = Cell cycle arrest in human PC3 cells assessed as rounded cells at 500 nM after 24 hrs by propidium iodide staining-based flow cytometry; type: functional; conditions: PC-3
RD [18] = assay: Cell cycle arrest in human RD cells assessed as rounded cells at 500 nM after 24 hrs by propidium iodide staining-based flow cytometry; type: functional
HepG2 [19] = assay: Cell cycle arrest in human HepG2 cells assessed as rounded cells at 500 nM after 24 hrs by propidium iodide staining-based flow cytometry; type: functional
RD [20] = assay: Cell cycle arrest in human RD cells at 500 nM incubated for 24 hrs followed by compound washout measured after 24 hrs; type: functional, cell-based
HepG2 [21] = assay: Cell cycle arrest in human HepG2 cells at 500 to 2000 nM incubated for 24 hrs followed by compound washout measured after 24 hrs; type: functional, cell-based
PC-3 = assay: Induction of apoptosis in human PC3 cells after 48 hrs by annexin-V/propidium iodide staining-based flow cytometry; type: functional, cell-based
RD [22] = assay: Induction of apoptosis in human RD cells at 500 to 2000 nM after 48 hrs by annexin-V/propidium iodide staining-based flow cytometry; type: functional, cell-based
HepG2 [23] = assay: Induction of apoptosis in human HepG2 cells at 500 to 2000 nM after 48 hrs by annexin-V/propidium iodide staining-based flow cytometry; type: functional, cell-based
K562 [24] = assay: Cytotoxicity against human K562 cells assessed as growth inhibition after 96 hrs by Giemsa staining-based light microscopy; type: functional, cell-based; conditions: K562, 96 h
K562 [25] = assay: Cell cycle arrest in human K562 cells assessed as mitotic index at 10 times IC50 (reference value: […] +/- […]%); type: functional
[26] = Inhibition of hedgehog signaling in mouse NIH/3T3 Shh-Light II cells after 48 hrs by luciferase reporter gene assay; type: functional, cell-based
[27] = Cytotoxicity against human D283 cells; type: functional, cell-based
HeLa [28] = assay: Cytotoxicity against human HeLa cells assessed as growth inhibition after 48 hrs by MTT method; type: functional, cell-based
HT-29 = assay: Cytotoxicity against human HT-29 cells assessed as growth inhibition after 48 hrs by MTT method; type: functional, cell-based; conditions: HT-29, 48 h
A549 = assay: Cytotoxicity against human A549 cells assessed as growth inhibition after 48 hrs by MTT method; type: functional, cell-based; conditions: A549, 48 h
[29] = Cytotoxicity against human HCT116 cells assessed as growth inhibition after 48 hrs by MTT method; type: functional, cell-based; conditions: HCT-116, 48 h
NCI/ADR-RES = assay: Cytotoxicity against human NCI/ADR-RES cells assessed as growth inhibition after 96 hrs by Giemsa staining-based light microscopy; type: functional, cell-based
HeLa [30] = assay: Cell cycle arrest in human HeLa cells assessed as accumulation at G2/M phase at 100 nM by propidium iodide staining-based flow cytometry; type: functional
HeLa [31] = assay: Cell cycle arrest in human HeLa cells assessed as mitotic rounded-up phenotype at 100 nM by light microscopy; type: functional, cell-based
HeLa [32] = assay: Induction of apoptosis in human HeLa cells assessed as short, aberrantly shaped, tripolar or multipolar microtubule at 100 nM by immunofluorescence analysis; type: functional, cell-based
HeLa [33] = assay: Cell cycle arrest in human HeLa cells by propidium iodide staining-based flow cytometry; type: functional
MCF7 [34] = assay: Cell cycle arrest in human MCF7 cells at 100 nM by immunofluorescence microscopy; type: functional, cell-based
MCF7 [35] = assay: Cell cycle arrest in human MCF7 cells expressing exogenous caspase-3 at 100 nM by immunofluorescence microscopy; type: functional, cell-based
cells [36] = conditions: Homo sapiens, OVCAR-8, 96 h
Description: Cytotoxicity against human OVCAR8 cells assessed as growth inhibition after 96 hrs by Giemsa staining-based light microscopy

[37] = Cell cycle arrest in human PC3 cells at 500 to 2000 nM incubated for 24 hrs followed by compound washout measured after 24 hrs; type: functional, cell-based; conditions: PC-3
RD [38] = assay: Cell cycle arrest in human RD cells at 1000 to 2000 nM incubated for 24 hrs followed by compound washout measured after 24 hrs; type: functional, cell-based
HepG2 [39] = assay: Induction of apoptosis in human HepG2 cells after 48 hrs by annexin-V/propidium iodide staining-based flow cytometry; type: functional, cell-based

COc1ccc(/C=C\c2cc(OC)c(OC)c(OC)c2)cc1O [COMBRETASTATIN A4]
Activity (HeLa [1]): Active
Activity (HeLa [2]): Active
Activity (HeLa [3]): Active
Activity (HeLa [4]): Active
Activity (HeLa [5]): Active
Activity (K562 [6]): 65%
IC50 (cells [7]): 39 nM

COc1cc(C(=O)c2ccn(-c3cccc(NC(=N)N)c3)c2)cc(OC)c1OC.Cl
IC50 (Tubulin): 1200 nM
IC50 (MCF7 [8]): 20 nM
inhibition (Tubulin (Homo sapiens)): 87%
IC50 [9]: 14 nM
IC50 [10]: 16 nM
IC50 [11]: 3.9 nM
IC50 (RD [12]): 0.803 µM
IC50 (HepG2 [13]): 49.5 nM
Activity [14]: Active
Activity (RD [15]): Active
Activity (HepG2 [16]): Active
Activity [17]: Active
Activity (RD [18]): Active
Activity (HepG2 [19]): Active
Activity (RD [20]): Active
Activity (HepG2 [21]): inactive
Activity (PC-3): Dose-dependent effect
Activity (RD [22]): Active
Activity (HepG2 [23]): Active
IC50 (K562 [24]): 25 nM
Activity (K562 [25]): 71%
inhibition [26]: Dose-dependent effect
IC50 [27]: 675 nM

COc1cc(C(=O)c2ccn(-c3ccccc3)c2)cc(OC)c1OC
IC50 (Tubulin): 1500 nM
IC50 (MCF7 [8]): 700 nM
inhibition (Tubulin (Homo sapiens)): 80%
IC50 (HeLa [28]): 100 nM
IC50 (HT-29): 90 nM
IC50 (A549): 200 nM
IC50 [29]: 77 nM
IC50 (NCI/ADR-RES): 20 nM
IC50 [9]: 56 nM
Activity (HeLa [30]): Active
Activity (HeLa [1]): Active
Activity (HeLa [31]): Active
Activity (HeLa [32]): Active
Activity (HeLa [33]): Dose-dependent effect
Activity (MCF7 [34]): inactive
Activity (MCF7 [35]): inactive
IC50 (cells [36]): 45 nM

CC(=O)O[C@H]1C(=O)[C@@]2(C)[C@H]([C@H](OC(=O)c3ccccc3)[C@]3(O)C[C@H](OC(=O)[C@H](O)[C@@H](NC(=O)c4ccccc4)c4ccccc4)C(C)=C1C3(C)C)[C@]1(OC(C)=O)CO[C@@H]1C[C@@H]2O [PACLITAXEL]
IC50 (RD [12]): 14.2 µM
Activity [14]: Active
Activity (RD [15]): Active
Activity (HepG2 [16]): Active
Activity [17]: Active
Activity (RD [18]): Active
Activity (HepG2 [19]): Active
Activity [37]: inactive
Activity (RD [38]): inactive
Activity (RD [20]): Active
Activity (HepG2 [21]): inactive
Activity (HepG2 [39]): Dose-dependent effect

Source: ChEMBL document CHEMBL3351435, “New pyrrole derivatives with potent tubulin polymerization inhibiting activity as anticancer agents including hedgehog-dependent cancer” (J Med Chem, 2014)
